12 compounds from the NIST ThermoML archive (doi:10.1016/j.fluid.2015.09.003) can be followed below.

A short description of this data set: activity coefficient (dimensionless); of the first substance listed, at infinite dilution; xn = mol fraction of the nth substance listed. As to conditions: 101 kPa, Liquid, Chromatography, x1 = 0.

± gives the expanded uncertainty stated by the source.

As to `CC(=O)C(C)C` [3-methyl-2-butanone] + CCOS(=O)(=O)[O-].CC[n+]1cccc(C)c1, the activity coefficient is, setting by setting: (333.2 K) 4.51 ± 0.21; (343.15 K) 4.62 ± 0.21; (353.09 K) 4.73 ± 0.22; (363.06 K) 4.79 ± 0.22; (372.99 K) 4.95 ± 0.23.
On to `CC(=O)CC(C)C` [4-methylpentan-2-one] + CCOS(=O)(=O)[O-].CC[n+]1cccc(C)c1, for which the activity coefficient (333.2 K) worked out at 6.97 ± 0.32; the activity coefficient (343.15 K) worked out at 6.99 ± 0.32; the activity coefficient (353.08 K) worked out at 7.03 ± 0.32; the activity coefficient (363.06 K) is 7.05 ± 0.32; the activity coefficient (372.99 K) worked out at 7.12 ± 0.33.
`CC(C)=O` [acetone] + CCOS(=O)(=O)[O-].CC[n+]1cccc(C)c1: the activity coefficient (323.24 K) came out at 1.78 ± 0.08; the activity coefficient (333.19 K) turned out to be 1.8 ± 0.08; the activity coefficient (343.16 K) was determined as 1.84 ± 0.08; the activity coefficient (353.11 K) was determined as 1.88 ± 0.08; the activity coefficient (363.08 K) was determined as 1.92 ± 0.08; the activity coefficient (372.99 K) was found to be 1.98 ± 0.09.
For `CCCCO` [butan-1-ol] + CCOS(=O)(=O)[O-].CC[n+]1cccc(C)c1, the activity coefficient (353.1 K) came to 1.13 ± 0.03, the activity coefficient (363.06 K) was 1.1 ± 0.03 and the activity coefficient (373 K) is 1.08 ± 0.03.
On to `CCC(C)O` (stereo not given) [butan-2-ol] + CCOS(=O)(=O)[O-].CC[n+]1cccc(C)c1, for which the activity coefficient stood at 1.27 ± 0.04 (333.19 K); 1.25 ± 0.04 (343.14 K); 1.24 ± 0.04 (353.1 K); 1.23 ± 0.04 (363.05 K); 1.23 ± 0.04 (373 K).
Consider `CCC(C)=O` [butanone] + CCOS(=O)(=O)[O-].CC[n+]1cccc(C)c1, for which the activity coefficient (323.25 K) is 2.7 ± 0.12; the activity coefficient (333.2 K) worked out at 2.74 ± 0.12; the activity coefficient (343.16 K) came out at 2.78 ± 0.13; the activity coefficient (353.1 K) is 2.84 ± 0.13; the activity coefficient (363.07 K) amounted to 2.88 ± 0.13; the activity coefficient (372.99 K) amounted to 2.95 ± 0.13.
As for `CCO` [ethanol] + CCOS(=O)(=O)[O-].CC[n+]1cccc(C)c1, the activity coefficient amounted to 0.6 ± 0.03 (333.18 K); 0.59 ± 0.03 (343.13 K); 0.58 ± 0.03 (353.1 K); 0.58 ± 0.03 (363.09 K); 0.57 ± 0.03 (373.01 K).
In the case of `CO` [methanol] + CCOS(=O)(=O)[O-].CC[n+]1cccc(C)c1, the activity coefficient is 0.32 ± 0.04 (323.26 K); 0.33 ± 0.04 (333.2 K); 0.33 ± 0.04 (343.15 K); 0.33 ± 0.04 (353.11 K); 0.33 ± 0.04 (363.07 K); 0.33 ± 0.04 (373 K).
In the case of `CCCCCO` [pentan-1-ol] + CCOS(=O)(=O)[O-].CC[n+]1cccc(C)c1, the activity coefficient came out at 1.66 ± 0.07 (353.09 K), 1.59 ± 0.06 (363.05 K) and 1.52 ± 0.06 (373.01 K).
`CCCC(C)=O` [pentan-2-one] + CCOS(=O)(=O)[O-].CC[n+]1cccc(C)c1: the activity coefficient is, setting by setting: (333.2 K) 4.35 ± 0.2; (343.15 K) 4.38 ± 0.2; (353.12 K) 4.44 ± 0.2; (363.05 K) 4.46 ± 0.2; (372.99 K) 4.52 ± 0.21.
In the case of `CCCO` [propan-1-ol] + CCOS(=O)(=O)[O-].CC[n+]1cccc(C)c1, the activity coefficient stood at 0.81 ± 0.03 (333.18 K); 0.8 ± 0.03 (343.13 K); 0.8 ± 0.03 (353.1 K); 0.79 ± 0.03 (363.06 K); 0.78 ± 0.03 (373 K).
As to `CC(C)O` [propan-2-ol] + CCOS(=O)(=O)[O-].CC[n+]1cccc(C)c1, the activity coefficient runs as follows: (323.24 K) 1 ± 0.03; (333.19 K) 0.97 ± 0.03; (343.14 K) 0.96 ± 0.03; (353.09 K) 0.94 ± 0.03; (363.06 K) 0.93 ± 0.03; (373 K) 0.92 ± 0.03.
